Data on 9 molecules can be found in PMC7170901, “Design and efficient synthesis of pyrazoline and isoxazole bridged indole C-glycoside hybrids as potential anticancer agents” (Scientific Reports, 2020).

For the data set, the system named is MDA-MB-231 (human breast cancer) cell line. Briefly: MTT cell viability assay in MDA-MB-231 cells. The format is cell-based. Conditions: 72 h, MTT; for viability at 10 µM / viability at 25 µM / viability at 50 µM: Homo sapiens, MDA-MB-231, 72 h, read-out: Cell Viability (%) ± SD. The procedure: IC50 values were determined by plotting values of percent cell viability against concentration of each of these compounds. […] The experiments were performed in triplicates, n = 3 and ± SE value was calculated for each data point.
The human breast cancer cell line MDA-MB-231 were cultured in Dulbecco’s Modified Eagle’s Medium (DMEM) (Gibco, St. Louis, USA) supplemented with 10% heat inactivated FBS (Fetal Bovine Serum, Gibco, USA) and 1% penicillin-streptomycin (Gibco Canada) in humidified CO2 incubator at 37 °C. The cells were maintained as a monolayer in 100 mm culture plate. The cells used for each experiment were of less than 8 passage number. Sub culturing of cells was performed every third day, followed by trypsin EDTA treatment.
Cell viability assay was performed as per standard protocols. […] Ltd, India). In brief, this is a homogeneous, colorimetric method for determining the number of viable cells in proliferation, cytotoxicity or chemosensitivity assays. MTT is bio reduced by cells into a formazan product that is soluble in the tissue culture medium. […] The absorbance of the formazan product at 595 nm was measured directly from 96-well assay plates without additional processing using a multimode plate reader (Bio-Rad) (iMark, India), as absorbance is directly proportional to the number of viable cells in culture. The percentage of viable cells in each group is determined with respect to the untreated control cells.
(Tetrazolium dyes change colour on reduction, which living cells bring about.)

As for `O=C(/C=C/c1c[nH]c2ccc([N+](=O)[O-])cc12)C[C@@H]1O[C@H](CO)[C@@H](O)[C@H](O)[C@H]1O` [Compound 10, (E)-4-(5-nitro-1H-indol-3-yl)-1-((2S,3R,4R,5S,6R)-3,4,5-trihydroxy-6-(hydroxymethyl)tetrahydro-2H-pyran-2-yl)but-3-en-2-one], the “Cell Viability (%) ± SD” value is on record as 91.40 ± 10.38% (MDA-MB-231, 10 µM, 10 µM); 84.49 ± 6.74% (MDA-MB-231, 25 µM, 25 µM); 85.37 ± 14.16% (MDA-MB-231, 50 µM, 50 µM).

Turning to `O=C(/C=C/c1c[nH]c2ccc(Br)cc12)C[C@@H]1O[C@H](CO)[C@@H](O)[C@H](O)[C@H]1O` [Compound 11, (E)-4-(5-bromo-1H-indol-3-yl)-1-((2S,3R,4R,5S,6R)-3,4,5-trihydroxy-6-(hydroxymethyl)tetrahydro-2H-pyran-2-yl)but-3-en-2-one], where the note is “MDA-MB-231, 10 µM”, the viability (commonly a read-out of living cells in per cent, often relative to untreated cells) at 10 µM came to 100 ± 23%. Further, the viability at 25 µM (MDA-MB-231, 25 µM) stood at 100 ± 8.93%. Also, where the note is “MDA-MB-231, 50 µM”, the viability at 50 µM amounted to 108 ± 2.89%.

In the case of `O=C(/C=C/c1c[nH]c2ccc(Cl)cc12)C[C@@H]1O[C@H](CO)[C@@H](O)[C@H](O)[C@H]1O` [Compound 12, (E)-4-(5-chloro-1H-indol-3-yl)-1-((2S,3R,4R,5S,6R)-3,4,5-trihydroxy-6-(hydroxymethyl)tetrahydro-2H-pyran-2-yl)but-3-en-2-one], the viability at 10 µM (MDA-MB-231, 10 µM) was 79.2 ± 8.51%. Besides, the viability at 25 µM (MDA-MB-231, 25 µM) was determined as 89.8 ± 8.75%. Also, the viability at 50 µM (MDA-MB-231, 50 µM) was 74.8 ± 7.02%.

With `O=C(/C=C/c1c[nH]c2ccccc12)C[C@@H]1O[C@H](CO)[C@H](O)[C@H](O)[C@H]1O` [Compound 13, (E)-4-(1H-indol-3-yl)-1-((2S,3R,4R,5R,6R)-3,4,5-trihydroxy-6-(hydroxymethyl)tetrahydro-2H-pyran-2-yl)but-3-en-2-one], the viability at 10 µM (MDA-MB-231, 10 µM) was 97.6 ± 2.25%. Besides, under “MDA-MB-231, 25 µM”, the viability at 25 µM was found to be 94.2 ± 1.96%. Also, for the setting “MDA-MB-231, 50 µM”, the viability at 50 µM was 84.2 ± 9.22%.

As for `O=C(/C=C/c1c[nH]c2ccc(Br)cc12)C[C@@H]1O[C@H](CO)[C@H](O)[C@H](O)[C@H]1O` [Compound 15, (E)-4-(5-bromo-1H-indol-3-yl)-1-((2S,3R,4R,5R,6R)-3,4,5-trihydroxy-6-(hydroxymethyl)tetrahydro-2H-pyran-2-yl)but-3-en-2-one], the viability at 10 µM (MDA-MB-231, 10 µM) was found to be 125 ± 3.51%. For the same molecule, under “MDA-MB-231, 25 µM”, the viability at 25 µM is 113 ± 23.9%. Moreover, the viability at 50 µM (MDA-MB-231, 50 µM) is 67.5 ± 17.7%.

With `O=C(/C=C/c1c[nH]c2ccc(Cl)cc12)C[C@@H]1O[C@H](CO)[C@H](O)[C@H](O)[C@H]1O` [Compound 16, (E)-4-(5-chloro-1H-indol-3-yl)-1-((2S,3R,4R,5R,6R)-3,4,5-trihydroxy-6-(hydroxylmethyl)tetrahydro-2H-pyran-2-yl)but-3-en-2-one], the viability at 10 µM (MDA-MB-231, 10 µM) is 75 ± 14.3%. The viability at 25 µM (MDA-MB-231, 25 µM) stood at 89.6 ± 12.9%. Besides, the viability at 50 µM (MDA-MB-231, 50 µM) turned out to be 56.7 ± 17.8%.

Take `O=C(/C=C/c1c[nH]c2ccccc12)C[C@@H]1O[C@H](CO)[C@@H](O)[C@H](O)[C@@H]1O` [Compound 17, (E)-4-(1H-indol-3-yl)-1-((2S,3S,4R,5S,6R)-3,4,5-trihydroxy-6-(hydroxymethyl)tetrahydro-2H-pyran-2-yl)but-3-en-2-one]: under “MDA-MB-231, 10 µM”, the viability at 10 µM worked out at 84.1 ± 4.09%. The viability at 25 µM (MDA-MB-231, 25 µM) amounted to 80.5 ± 2.58%. The viability at 50 µM (MDA-MB-231, 50 µM) is 79.4 ± 10.4%.

In the case of `O=C(/C=C/c1c[nH]c2ccc([N+](=O)[O-])cc12)C[C@@H]1O[C@H](CO)[C@@H](O)[C@H](O)[C@H]1O` [Compound 18, (E)-4-(5-nitro-1H-indol-3-yl)-1-((2S,3R,4R,5S,6R)-3,4,5-trihydroxy-6-(hydroxylmethyl)tetrahydro-2H-pyran-2-yl) but-3-en-2-one], the viability at 10 µM (MDA-MB-231, 10 µM) is 71.7 ± 28.4%. For the same molecule, the viability at 25 µM (MDA-MB-231, 25 µM) is 78.5 ± 6.73%. The viability at 50 µM (MDA-MB-231, 50 µM) was found to be 69.8 ± 20.4%.

Consider `OC[C@H]1O[C@@H](CC2=NNC(c3c[nH]c4ccccc34)C2)[C@H](O)[C@@H](O)[C@@H]1O` (stereo partly drawn) [Compound 21, (2S,3R,4R,5S,6R)-2-((5-(1H-indol-3-yl)-4,5-dihydro-1H-pyrazol-3-yl)methyl)-6-(hydroxy-methyl)tetrahydro-2H-pyran-3,4,5-triol], for which the viability at 10 µM (MDA-MB-231, 10 µM) is 73.5 ± 2.43%. For the setting “MDA-MB-231, 25 µM”, the viability at 25 µM was 76.8 ± 2.43%. The viability at 50 µM (MDA-MB-231, 50 µM) was found to be 75 ± 2.62%.
